Values of other authors, collected in patent US20090214462A1, “COCKCROACH JELLY BAIT” (priority 2004, published 2009).

Test system: cockroaches
Details: kill by intake; general statement

Structure (SMILES) | Time until cockroaches die after intake
OB(O)O [Boric acid] | one to eight
CCOP(=S)(OCC)Oc1nc(Cl)c(Cl)cc1Cl [Chlorpyrifos] | 2 to 3 days
